The first data set concerns the target GP-RBD-Fc (without the glycan cap and MLD) (Bundibugyo ebolavirus (key resources table); called EBOV in the results). The data set can be described thus: BLI; pH 6.1.
Details: not given
A general note: In BLI a coated tip is dipped into the sample, and binding shifts an interference pattern.
As a reminder, the Kd is the constant that tells how readily two partners part at equilibrium. For “human soluble CD4-183 (sCD4-183) two-domain protein (domain or fragment)”, the Kd was 0.36 µM.

The target is the same in another data set. Nature of the data set: BLI; pH 7.4.
Details: not given
“human soluble CD4-183 (sCD4-183) two-domain protein (domain or fragment)” had a Kd of 52 µM.

In a further data set the test system is pseudotyped EBOV. Nature of the data set: microbe, parasite or virus in culture. The data set is classed as cell-based, Zaire ebolavirus.
Details: not given
For `CNCc1ccc2c(c1)C[C@H](CNC(=N)N)[C@H]2NC(=O)C(=O)Nc1ccc(Cl)c(F)c1` [BNM-III-170], the “inhibition potency against EBOV, in words” value is “largely reduced”.

The data set is the same for the next values; noted with them: Zaire ebolavirus, TZM-bl, read-out: EBOV (IC50).
As usually defined, the IC50 is the concentration needed to halve the response being measured. For `CNCc1ccc2c(c1)C[C@H](CNC(=N)N)[C@H]2NC(=O)C(=O)Nc1ccc(Cl)c(F)c1` [BNM-III-170], the IC50 was more than 30 µM.
The same measure, in the same setting: next, `CC1(C)CC(NC(=O)C(=O)Nc2ccc(C(C)(C)C)cc2)CC(C)(C)N1` [Compd N9]: 9.51 ± 1.6 µM.
On to `CC1(C)CC(NC(=O)C(=O)Nc2ccc(C(F)(F)F)c(F)c2)CC(C)(C)N1` [DY-III-226], for which the IC50 amounted to 11.1 µM.
On the same count and under the same terms, to `CC1(C)CC(NC(=O)C(=O)Nc2cc(F)c(Cl)c(F)c2)CC(C)(C)N1` [DY-III-227] belongs 12.1 µM; to `CC1(C)CC(NC(=O)C(=O)Nc2ccc(C(C)(C)C)c(F)c2)CC(C)(C)N1` [DY-III-228], 1.98 ± 0.5 µM; to `CC1(C)CC(NC(=O)C(=O)Nc2ccc(Cl)c(F)c2)CC(C)(C)N1` [JRC-II-191], 9.52 ± 1.4 µM.
For the molecule `CC1(C)CC(NC(=O)C(=O)Nc2ccc(Cl)cc2)CC(C)(C)N1` [NBD-556], the IC50 worked out at 18.2 ± 1 µM.
On to `CC1(C)CC(NC(=O)C(=O)Nc2ccc(Br)cc2)CC(C)(C)N1` [NBD-557], for which the IC50 is 19.8 ± 1.7 µM.

Still in this data set, the particulars now being: read-out: EBOV (IC50).
Take `CC1(C)CC(NC(=O)C(=O)Nc2ccc(C(F)(F)F)c(F)c2)CC(C)(C)N1` [DY-III-226]: the IC50 came to 11.2 ± 0.8 µM.
Still for that read-out and setting: to `CC1(C)CC(NC(=O)C(=O)Nc2cc(F)c(Cl)c(F)c2)CC(C)(C)N1` [DY-III-227] belongs 12.5 ± 1.5 µM.

The subject of the next data set is pseudotyped BDBV. The data set can be described thus: microbe, parasite or virus in culture. Format: cell-based, Bundibugyo ebolavirus. The conditions noted are these: Bundibugyo virus, TZM-bl, read-out: BDBV (IC50).
Turning to `CC1(C)CC(NC(=O)C(=O)Nc2ccc(C(C)(C)C)cc2)CC(C)(C)N1` [Compd N9], the IC50 came out at 17.6 ± 2.7 µM.
Same read-out and setting: next, `CC1(C)CC(NC(=O)C(=O)Nc2ccc(C(F)(F)F)c(F)c2)CC(C)(C)N1` [DY-III-226]: 10.6 ± 0.5 µM; `CC1(C)CC(NC(=O)C(=O)Nc2cc(F)c(Cl)c(F)c2)CC(C)(C)N1` [DY-III-227]: 12.1 ± 0.7 µM.
On the same count and under the same terms, to `CC1(C)CC(NC(=O)C(=O)Nc2ccc(C(C)(C)C)c(F)c2)CC(C)(C)N1` [DY-III-228] belongs 2.25 ± 0.2 µM; to `CC1(C)CC(NC(=O)C(=O)Nc2ccc(Cl)c(F)c2)CC(C)(C)N1` [JRC-II-191], 9.99 ± 1.1 µM.
The same measure, in the same setting: to `CC1(C)CC(NC(=O)C(=O)Nc2ccc(Cl)cc2)CC(C)(C)N1` [NBD-556] belongs 16.8 ± 2.1 µM; to `CC1(C)CC(NC(=O)C(=O)Nc2ccc(Br)cc2)CC(C)(C)N1` [NBD-557], 10.6 ± 1.8 µM.

In a further data set the test system is infectious EBOV. The data set can be described thus: microbe, parasite or virus in culture. The following applies: Zaire ebolavirus, read-out: Infectious EBOV (IC50). The data set is classed as cell-based, Ebola Zaire virus.
On to `CC1(C)CC(NC(=O)C(=O)Nc2ccc(C(C)(C)C)cc2)CC(C)(C)N1` [Compd N9], for which the IC50 was found to be 9.46 µM.
Still for that read-out and setting: to `CC1(C)CC(NC(=O)C(=O)Nc2ccc(C(C)(C)C)c(F)c2)CC(C)(C)N1` [DY-III-228] belongs 0.56 µM; to `CC1(C)CC(NC(=O)C(=O)Nc2ccc(Cl)c(F)c2)CC(C)(C)N1` [JRC-II-191], 5.25 µM; to `CC1(C)CC(NC(=O)C(=O)Nc2ccc(Cl)cc2)CC(C)(C)N1` [NBD-556], 18.8 µM.

The next data set relates to NPC1 binding to Ebola GP-RBD.
Experiment: not given
Further details: species or system Ebola virus.
Details: not given
With `CC1(C)CC(NC(=O)C(=O)Nc2ccc(C(C)(C)C)c(F)c2)CC(C)(C)N1` [DY-III-228], the “NPC1 binding remaining (A488+ cells) in presence of competitor” value came out at 30.90%.
On to `CC1(C)CC(NC(=O)C(=O)Nc2ccc(Cl)c(F)c2)CC(C)(C)N1` [JRC-II-191], for which the “NPC1 binding remaining (A488+ cells) in presence of competitor” value is recorded as 24.29%.
On the same count and under the same terms, next, `CC1(C)CC(NC(=O)C(=O)Nc2ccc(Cl)cc2)CC(C)(C)N1` [NBD-556]: 28.36%.

A further data set has as its system pseudotyped VSV.
Experiment: not given
Details: not given
Format: cell-based, vesicular stomatitis virus.
`CC1(C)CC(NC(=O)C(=O)Nc2ccc(Cl)c(F)c2)CC(C)(C)N1` [JRC-II-191]: the “neutralization of pseudotyped VSV” value is given as “did not neutralize”.

A further data set relates to pseudotyped A-MLV.
Experiment: not given
The data set is classed as cell-based, amphotropic murine leukemia virus.
Details: not given
With `CC1(C)CC(NC(=O)C(=O)Nc2ccc(Cl)c(F)c2)CC(C)(C)N1` [JRC-II-191], the “neutralization of pseudotyped A-MLV” value is given as “did not neutralize”.

Tested on in another data set: not listed separately
The data set can be described thus: in vitro. The conditions noted are these: human.
As for `CC1(C)CC(NC(=O)C(=O)Nc2ccc(C(C)(C)C)cc2)CC(C)(C)N1` [Compd N9], the CC50 is more than 100 µM.
Molecule `CC1(C)CC(NC(=O)C(=O)Nc2ccc(C(F)(F)F)c(F)c2)CC(C)(C)N1` [DY-III-226] came in with a CC50 of 48.4 ± 5.4 µM.
Same read-out and setting: to `CC1(C)CC(NC(=O)C(=O)Nc2cc(F)c(Cl)c(F)c2)CC(C)(C)N1` [DY-III-227] belongs 68.3 ± 4.3 µM.
On to `CC1(C)CC(NC(=O)C(=O)Nc2ccc(C(C)(C)C)c(F)c2)CC(C)(C)N1` [DY-III-228], for which the CC50 was found to be 20.6 ± 2.6 µM.
Regarding `CC1(C)CC(NC(=O)C(=O)Nc2ccc(Cl)c(F)c2)CC(C)(C)N1` [JRC-II-191], the CC50 came out at 43.2 ± 6 µM.
Still for that read-out and setting: to `CC1(C)CC(NC(=O)C(=O)Nc2ccc(Cl)cc2)CC(C)(C)N1` [NBD-556] belongs 67.7 ± 7.3 µM.

For the origin of these results see paper PMC12148371 (iScience, 2025).
